Assay results published in patent publication US20180362654A1, “Methods for Reducing or Preventing Growth of Tumors Resistant to EGFR and/or ErbB3 Blockade” (Regeneron Pharmaceuticals, Inc., priority 2015, published 2018).

Experiments:
AKT = AKT activation by western blot (phospho-AKT); type: cell-based, human; conditions: REGN1400 5 μg/ml, REGN955 10 μg/ml, AZD4547 25 nM
Method: (§1) For analysis of cell signaling by western blot, tumor cells were treated with the following reagents: ErbB3 blocking REGN1400, EGFR blocking antibody REGN955, MEK inhibitor GSK1120212 (Selleckchem), FGFR TKI AZD4547 (Selleckchem), MET TKI PHA665752 (Sigma), PI3K inhibitor BYL719, human NRG1 (R&D Systems), human EGF (R&D Systems). Following treatment, cell lysates were subjected to western blot with the following antibodies: phospho-ErbB3 (Cell Signaling Technology (CST), cat. #4561), EGFR (CST, cat. #2646), phospho-EGFR (CST, cat. #2234), Akt (CST, cat. #9272), phospho-Akt (CST, cat. #4060), ERK (CST, cat. #4695), phospho-ERK (CST, cat. #4370), MET (CST, cat. #8198), phospho-MET (CST, cat. #3077), ErbB3 (CST, cad.#4754), phospho-FGFR (CST, cat. #3476).

FGFR3 = FGFR3 phosphorylation by anti-phosphotyrosine immunoprecipitation and western blot; type: cell-based, human; conditions: FaDu V2 cells; 25 nM AZD4547; 1 hour
Method: FIGS. 4A-4F provide evidence that FGFR3 is activated in FaDu resistant variant cell lines and maintains ERK signaling upon EGFR blockade. […] Active RTKs of note are boxed and labeled. The unlabeled spots on the corners of the membranes are positive controls. […] The presence of FGFR3 and Src in the immunoprecipitates was assessed by western blot. […] Following treatment, cell lysates were subjected to western blot with antibodies against phospho-ERK, ERK, phospho-MET and MET. […] Following treatment, cell lysates were subjected to immunoprecipitation with anti-phosphotyrosine antibody 4G10 conjugated to agarose beads. The presence of FGFR3 and Src in the immunoprecipitates was assessed by western blot. […] Following treatment, cell lysates were subjected to western blot with antibodies against phospho-ERK, ERK, phospho-AKT and AKT.
To assess the tyrosine phosphorylation status of FGFR3-TACC3 fusion proteins in FaDu V1 and V2 cell lines, cells growing in 10 cm dishes were lysed in 1 ml of buffer (150 mM NaCl/20 mM Tris, pH 7.5/1% Triton X-100) containing Halt Protease and Phosphatase Inhibitor Cocktail (Thermo Scientific). […]

ERK = ERK activation by western blot (phospho-ERK); type: cell-based, human; conditions: REGN1400 5 μg/ml, REGN955 10 μg/ml, AZD4547 25 nM
Method: as §1

NCI-H1975 cells = assay: Tumor cell growth assay (MTS), NCI-H1975 cells expressing FGFR3-TACC3 fusion proteins; type: cell-based, human; conditions: 72 hours, 50 nM AZD9291
Method: (§2) The bar graphs show the relative cell growth in each treatment group, as determined by MTS assay. Error bars show the standard deviation, n=8. […] The bar graphs show the relative cell growth in each treatment group, as determined by MTS assay. Error bars show the SD, n=8. FIGS. 11C-11D respectively show SNU1076 or Detroit 562 cells expressing wild-type FGFR3 or FGFR3-TACC3 fusion proteins that were grown for 72 hours in the presence of vehicle or 5 μM PI3K inhibitor BYL719. The bar graphs show the relative cell growth in each treatment group, as determined by MTS assay. Error bars show the standard deviation, n=8. […] Cell lysates were prepared and subjected to western blot with antibodies against phospho-ERK, ERK, phospho-AKT, or AKT.
(§3) To assess tumor cell growth, 2-3,000 cells were plated in 96-well plates (n=8 replicate wells per treatment group) in serum-containing medium. The day after plating, the baseline (0 hour) cell number was determined by MTS assay using the CellTiter96 Aqueous One Solution Cell Proliferation Assay (Promega). […] At 72 hours, the final cell number was determined by MTS assay. The relative cell growth for each treatment group was determined by subtracting the baseline MTS reading from the final MTS reading. […]

Detroit 562 cells = assay: Tumor cell growth assay (MTS), Detroit 562 cells expressing FGFR3-TACC3 fusion proteins; type: cell-based, human; conditions: 72 hours, 5 μM BYL719
Method: as §2, §3

SNU1076 cells = assay: Tumor cell growth assay (MTS), SNU1076 cells expressing FGFR3-TACC3 fusion proteins; type: cell-based, human; conditions: 72 hours, 5 μM BYL719
Method: as §2, §3

MET = biological target: T1, MET (Homo sapiens, UniProt P08581); assay: MET phosphorylation by western blot; type: cell-based; conditions: FaDu V2 cells; 100 nM PHA665752; 30 minutes
T1 construct: Fadu V2 cells that were treated for 30 minutes with control antibody; endogenous in cells
T1 sequence (P08581 25-1390): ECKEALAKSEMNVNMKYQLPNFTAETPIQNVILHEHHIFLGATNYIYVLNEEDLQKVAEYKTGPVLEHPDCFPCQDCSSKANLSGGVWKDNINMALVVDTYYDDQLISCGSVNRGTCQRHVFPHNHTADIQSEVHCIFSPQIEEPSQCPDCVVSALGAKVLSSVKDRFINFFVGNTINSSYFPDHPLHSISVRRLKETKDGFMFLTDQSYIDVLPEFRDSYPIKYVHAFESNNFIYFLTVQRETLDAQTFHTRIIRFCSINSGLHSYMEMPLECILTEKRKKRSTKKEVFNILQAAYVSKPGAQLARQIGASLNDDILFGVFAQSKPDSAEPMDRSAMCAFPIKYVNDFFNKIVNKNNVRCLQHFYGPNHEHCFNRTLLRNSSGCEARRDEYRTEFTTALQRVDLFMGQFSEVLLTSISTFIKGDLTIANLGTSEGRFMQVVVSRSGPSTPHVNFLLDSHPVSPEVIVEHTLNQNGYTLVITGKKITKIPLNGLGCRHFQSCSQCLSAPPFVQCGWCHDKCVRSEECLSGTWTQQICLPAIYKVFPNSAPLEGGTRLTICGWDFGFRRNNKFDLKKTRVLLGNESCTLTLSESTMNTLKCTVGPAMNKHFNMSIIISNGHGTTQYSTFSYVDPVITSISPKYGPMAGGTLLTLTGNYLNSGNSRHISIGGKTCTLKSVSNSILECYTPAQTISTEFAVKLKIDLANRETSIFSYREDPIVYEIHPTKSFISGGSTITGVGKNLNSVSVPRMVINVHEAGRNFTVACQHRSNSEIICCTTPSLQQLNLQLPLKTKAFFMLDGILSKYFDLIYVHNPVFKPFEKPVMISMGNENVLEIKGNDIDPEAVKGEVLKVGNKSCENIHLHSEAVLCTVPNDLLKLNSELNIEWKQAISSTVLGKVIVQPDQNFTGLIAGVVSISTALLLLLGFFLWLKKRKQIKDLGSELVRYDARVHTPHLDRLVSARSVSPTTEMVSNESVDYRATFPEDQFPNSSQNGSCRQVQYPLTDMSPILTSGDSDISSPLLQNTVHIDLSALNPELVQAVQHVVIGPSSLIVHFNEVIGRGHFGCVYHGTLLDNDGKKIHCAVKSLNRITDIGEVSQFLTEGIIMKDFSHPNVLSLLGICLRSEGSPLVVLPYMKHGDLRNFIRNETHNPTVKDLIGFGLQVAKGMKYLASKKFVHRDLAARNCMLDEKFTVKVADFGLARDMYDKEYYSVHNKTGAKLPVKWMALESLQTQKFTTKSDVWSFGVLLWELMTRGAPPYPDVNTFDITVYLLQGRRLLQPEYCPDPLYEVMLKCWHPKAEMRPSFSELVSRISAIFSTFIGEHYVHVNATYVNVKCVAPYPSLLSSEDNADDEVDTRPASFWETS

[1] = FaDu V2 cells, GSK1120212 100 nM, PHA665752 100 nM

With COc1cc(CCc2cc(NC(=O)c3ccc(N4CC(C)NC(C)C4)cc3)n[nH]2)cc(OC)c1 (stereo not shown) [AZD4547] the “inhibition of AKT activation” value (AKT; FaDu V1 cells) was “no effect on AKT activation”, the “inhibition of AKT activation” value (AKT; FaDu V2 cells, GSK1120212 100 nM) was “no effect on AKT activation” and the “inhibition of FGFR3 phosphorylation” value (FGFR3) was “completely blocked FGFR3 phosphorylation”. The “inhibition of ERK activation” value (ERK; FaDu V1 cells) was “either no effect or a partial effect” and the “inhibition of ERK activation” value (ERK; [1]) was “either no effect or a partial effect”.

In the case of C=CC(=O)Nc1cc(Nc2nccc(-c3cn(C)c4ccccc34)n2)c(OC)cc1N(C)CCN(C)C [AZD9291], the “growth inhibition in cells expressing FGFR3-TACC3 fusion proteins” value (“growth inhibition” for short) (NCI-H1975 cells) is reported as “promote resistance”.

With Cc1nc(NC(=O)N2CCC[C@H]2C(N)=O)sc1-c1ccnc(C(C)(C)C(F)(F)F)c1 [BYL719, alpelisib] the “growth inhibition” value (Detroit 562 cells) was “neither of the FGFR3-TACC3 fusion proteins was able to confer substantial resistance” and the “growth inhibition” value (SNU1076 cells) was “neither of the FGFR3-TACC3 fusion proteins was able to confer substantial resistance”.

With Cc1[nH]c(/C=C2\C(=O)Nc3ccc(S(=O)(=O)Cc4c(Cl)cccc4Cl)cc32)c(C)c1C(=O)N1CCC[C@@H]1CN1CCCC1 [PHA665752] the “inhibition of ERK activation” value (ERK; [1]) was “did not inhibit ERK activation” and the “inhibition of MET phosphorylation” value (MET) was “completely blocking MET phosphorylation”.
